Experimental data published in US20110124607A1, “COMPOSITION FOR REGULATION CELLULAR SENESCENCE COMPRISING LYSOPHOSPHATIDIC ACID AND INHIBITOR OF ADENYLYL CYCLASE AS ACTIVE INGREDIENTS” (priority 2008, published 2011).

Assays:
p21waf1/cip1 = experiment: Immuno-blotting of p21waf1/cip1; type: cell-based, human; details: 10 mM AMPKI, 10 mM AICAR
Protocol: (§1) (A) and (B): Young and senescent cells were serum-starved for 2 days, followed by treatment with 10 mM of AMPK inhibitor […]) or 10 mM of AMPK activator AICAR(B) for 4 days. Proteins were extracted from the treated cells and the levels of AMPKα and p-Thr172-AMPKα, total p53, p-Ser15-p53 and […] measured by immuno-blotting. (C) and (D): Young cells (C) and senescent cells (D) were treated with 10 mM AMPKI or 10 mM AICAR and cultured for 4 days, followed by measurement of cell proliferation by cell counting. At this time, the experiment was repeated three times (p<0.001). (A) and (B) are photographs illustrating the results of immuno-blotting. Precisely, sub-cultured young cells (PD 18: A) and senescent cells (PD 64: B) were treated with 30 μM of LPA […] and ACI singly or together, followed by further culture for 1, 2, and 4 days. Proteins were extracted from the cultured cells and the levels of AMPKα, […] β-actin were quantified by immuno-blotting. (A) and (B) are photographs illustrating the results of immuno-blotting. Precisely, senescent cells (PD 64) were pre-treated with 10 mM of PKA inhibitor Rp-cAMP for one hour, followed by treatment with LPA(A) or ACI(B). After culturing the cells for 1, 2, and 4 days, proteins were extracted from the cultured cells and the levels of AMPKα, […] β-actin were quantified by immuno-blotting using 45 μg of the protein. To analyse protein expression, human fibroblasts were lysed in cold lysis buffer (25 mM Hepes, pH 8.0, 150 mM NaCl, 1 mM EDTA, 1 mM Na3VO4, 1 mM NaF, 1% Triton X-100 and protease inhibitors), followed by centrifugation at 4° C. at 9,000 rpm for 10 minutes to obtain supernatant. Protein in the extract was quantified […]. SDS-PAGE electrophoresis was performed with equal amount of the protein (45 μg) to separate. The separated protein was transferred onto NC membrane from the electrophoresis gel. Non-specific protein binding was blocked by blocking the blot (transferred NC membrane) using TTBS […] containing 5% skim milk for one hour. Then, antigen-antibody reaction was induced with diluted primary antibody at 4° C. for overnight. The blot was washed with TTBS, followed by reaction with horseradish peroxidase conjugated anti-IgGs diluted in TTBS containing 5% skim milk (1:5000) at room temperature for one hour. The blot was washed again with TTBS to eliminate non-specific binding of antigen-antibody. Photographs were developed/printed on X-ray film (Kodak) using ECL kit (Pierce) containing peroxidase substrate to identify each protein.

[1] = test system: young cells (human fibroblasts); experiment: Cell proliferation by counting live cells (trypan blue), young cells; type: cell-based; details: serum-starved 2 days, counted day 1, 2, 4, 30 μM LPA, 300 μM ACI, 10 mM AMPKI, 10 mM AICAR
Protocol: (§2) Human fibroblasts were prepared by primary culture of foreskin of a newborn baby (Boyce and Ham, 1983). The primary culture was performed in DMEM supplemented with 10% FBS and 1% antibiotics. The protein contents of young cells from the early stage of sub-culture, with a population doubling (PD) of less than 25, were compared to those of at least PD 65-70 senescent cells. […] In senescent cells, the activity of beta-galactosidase was increased and cell proliferation was reduced (Yeo et al., 2000).
(§3) Prior to LPA and ACI treatment, cells were grown for 1-2 days to 60-70% sub-confluence in DMEM-containing culture medium, and then serum-starved to quiescence (that is Go/G1 arrest) by incubation in a serum-free medium containing 0.1% bovine serum albumin (BSA) for 2 days. Young and senescent cells were treated with LPA, ACI, LPA+ACI, AMPKI and AICAR, respectively. Live cells were measured after staining the cells with trypan blue on day 1, day 2 and day 4 to confirm cell proliferation.
(§4) Cell proliferation and cAMP level were increased by LPA in senescent cells (Yeo et al., 2002). The AC inhibitor (ACI) was added to reduce cAMP which had been increased by LPA. And then, cell proliferation was investigated. Cells were cultured in serum-free medium for 2 days to arrest them in G0/G1 phase. Then, the cells were treated with LPA, ACI or LPA+ACI. Total cell number was measured on day 1, day 2 and day 4, or the cells entered into S phase were counted to evaluate cell proliferation. When young cells were treated with 300 μM of ACI, cell proliferation was reduced, compared with control (FIG. 1A). In the meantime, when senescent cells were treated with 300 μM of ACI, cell proliferation was increased, compared with control (FIG. 1B).

p-Thr172-AMPKα = experiment: Immuno-blotting of p-Thr172-AMPKα; type: cell-based, human; details: 30 μM LPA, 300 μM ACI, 10 mM AMPKI, 10 mM AICAR, up to day 4
Protocol: as §1

[2] = test system: senescent cells (human fibroblasts); experiment: Cell proliferation by counting live cells (trypan blue), senescent cells; type: cell-based; details: serum-starved 2 days, counted day 1, 2, 4, 30 μM LPA, 300 μM ACI, 10 mM AMPKI, 10 mM AICAR
Protocol: as §2, §3, §4

p-Ser15-p53 = experiment: Immuno-blotting of p-Ser15-p53; type: cell-based, human; details: 10 mM AMPKI, 10 mM AICAR
Protocol: as §1

[3] = senescent cells, 30 μM LPA, 300 μM ACI

In the case of `NC(=O)c1ncn([C@@H]2O[C@H](CO)[C@@H](O)[C@H]2O)c1N` [AICAR], the “p21 expression (immuno-blotting)” value (p21waf1/cip1; [3]) is reported as “increased”, the “p21 expression (immuno-blotting)” value (p21waf1/cip1; young cells, 4 days) is reported as “increased” and the “cell proliferation (cell number) compared with control” value [1] is reported as “suppressed”. The Thr172-AMPKα phosphorylation (p-Thr172-AMPKα; senescent cells) was “increased”, the Thr172-AMPKα phosphorylation (p-Thr172-AMPKα; young cells) was “increased” and the “cell proliferation (cell number) compared with control” value [2] was “suppressed”. The p-Ser15-p53 expression (p-Ser15-p53; [3]) was “increased” and the p-Ser15-p53 expression (p-Ser15-p53; young cells, 4 days) was “increased”.
